Measurements taken from PMC8536575, “Acute effects of the imidacloprid metabolite desnitro-imidacloprid on human nACh receptors relevant for neuronal signaling” (Archives of Toxicology, 2021).
Where “and” joins values, the source holds several entries; their conditions need not be identical. Equal values may be shown once.

Experiments:
human α4β2 (HS) nAChR = target: T1, human α4β2 (HS) nAChR (Homo sapiens, UniProt P17787+P43681); assay: Two-electrode voltage-clamp recordings, Xenopus laevis oocytes expressing human α4β2 (HS) nAChR; assay type: cell-based
T1 construct: expressed in transfected cells; host or cells: Xenopus laevis oocytes (EcoCyte Bioscience), mRNA injection, 3 ng α4 and 30 ng β2

[1] = Clearance study in a hepatocyte co-culture system; details: human, hepatocytes
Excerpt: Renal clearance for DN-IMI was assumed to be governed only by passive processes, with both filtration and passive reabsorption being accounted for. Passive permeability was scaled from the predicted permeability in the intestine (Peff 0.37 10-4 cm/s) accounting for the surface area of the proximal tubules in the kidney.

[2] = test system: Xenopus laevis oocytes without additional receptor expression; assay: Control recordings in oocytes without additional receptor expression; assay type: cell-based; details: DN-IMI 30 µM, injection of water without mRNA, n = 5
Method: First, we focused our experiments on the α4β2 receptor, which can assemble in two different stoichiometries. […] For control purposes, we applied DN-IMI (30 µM) to Xenopus laevis oocytes without additional receptor expression (injection of water without mRNA).

nAChRs on SH-SY5Y cells [3] = assay: Desensitization of the nicotine response of SH-SY5Y cells; assay type: cell-based, human; details: pretreatment 20 min, nicotine 10 µM, PNU 10 µM
Method: To measure acute changes in the average [Ca^2+]i of a population, SH-SY5Y cells were examined in the 96-well plate fluorescence reader FlexStation II (Molecular Devices) using the fluorophore Fura-2AM. SH-SY5Y (35,000 cells/well; 109,375 cells/cm^2) were seeded in maintenance culture medium in black 96-well plates with clear bottom (Corning, #3603). 24 h after seeding, maintenance medium was replaced with differentiation medium. […] The fluorescence was assessed at 37 °C in the fluorescence plate reader (FlexStation II; Molecular Devices) at two different excitation wavelengths, 340 nm for Ca^2+-bound Fura-2 and 380 nm for free Fura-2, and at 510 nm emission, every 3.1 s using bottom read settings. After 26–29 s of initial baseline recording of the fluorescence intensity, 10 µl of the compound dilution (10 times higher than the final concentration to the cells) was transferred automatically by the FlexStation II (“Flex mode”) to the cell plate wells (five wells per concentration) and the fluorescence intensity was monitored for another 150 s. The ratio of fluorescence intensity at 340/380 nm was determined and the mean values from the baseline recording before the addition of test compounds was set to zero. The acute change in the Ca^2+ influx after the addition of the compounds was quantified as the area under the curve (AUC) using the SoftMax Pro 4.8 software (Molecular Devices). […]

[4] = Blood/plasma ratio and free fraction (PBTK input parameters); assay type: in vitro ADME
[5] = monoprotic base; average of values; ref CHEMBL and ACD; cited from earlier work
LUHMES neurons = assay: Single-cell Ca2+-imaging of LUHMES neurons; assay type: cell-based, human; details: single-cell time-lapse fluorescence microscopy
Method: For Ca^2+-imaging experiments with a higher resolution on the single-cell level, the Cell Observer (Carl Zeiss Microscopy) was used. The Ca^2+-sensitive dye, the cell handling before the experiment, and the buffer were the same as described above for the experiments with the high-throughput FDSS/µCELL system. The recordings were performed with 2 × 2 binning and a 42 ms exposure time. The compounds were applied after a baseline recording of at least 10 s.
The single-cell Ca^2+-imaging recordings were exported and analyzed in Fiji ImageJ (version 1.52i) to get the average fluorescence signal of each cell. These signals were further analyzed in R, where a threshold detection was performed to detect responding cells. For this, the offset was corrected by subtracting the mean of 20–65% of the fluorescence signal of the pre-application period from the recording, to be robust against spontaneous activity. The threshold was defined as mean + 3 * SD of the negative control recordings, during the detection phase of 6.5 s during the application.

nAChRs on SH-SY5Y cells [6] = assay: [Ca2+]i measurements in SH-SY5Y cells (agonist effect); assay type: cell-based, human
Method: (§1) SH-SY5Y cells were cultured as previously described (Attoff et al. [2016]). Briefly, they were cultured in MEM supplemented with 10% fetal bovine serum (Gibco, 31330095), 1% non-essential amino acid solution (Gibco, 11140035), 2 mM L-glutamine (Gibco, 25030024), 100 μg/ml streptomycin, and 100 U/ml penicillin (Gibco, 15140122). For maintenance culture, SH-SY5Y cells were seeded at 27,000 cells/cm^2 in 75 cm^2 cell culture flasks (Corning). The cells were passaged once a week using TrypLE Express Enzyme (Gibco). SH-SY5Y cells were differentiated into a neuronal-like phenotype by exchanging the maintenance medium with differentiation medium consisting of DMEM/F12 (Gibco, 31330095) supplemented with 1 mM L-glutamine (Gibco, 25030024), 100 μg streptomycin/mL, 100 U penicillin/mL, 1 × N2-supplement (Gibco, 17502048) and 1 µM all-trans retinoic acid (RA, Sigma, R2625) 24 h after seeding. The cells were incubated in 100% humidity at 37 °C in air with 5% CO2.
(§2) To measure acute changes in the average [Ca^2+]i of a population, SH-SY5Y cells were examined in the 96-well plate fluorescence reader FlexStation II (Molecular Devices) using the fluorophore Fura-2AM. SH-SY5Y (35,000 cells/well; 109,375 cells/cm^2) were seeded in maintenance culture medium in black 96-well plates with clear bottom (Corning, #3603). 24 h after seeding, maintenance medium was replaced with differentiation medium. After 72 h of differentiation, Fura-2AM dissolved in DMSO and diluted in KRH buffer (125 mM NaCl, 5 mM KCl, 1.2 mM MgSO4, 1.2 mM KH2PO4, 2.0 mM CaCl2, 6.0 mM D-glucose, and 25 mM HEPES (free acid), pH adjusted to 7.4 by 1.0 M NaOH) were added to the medium to a final concentration of 4 µM (Gustafsson et al. [2010]). The plates were incubated for 30 min at 37 °C before cells were washed once with 200 µl KRH buffer. 90 µl of KRH buffer without or with 10 µM PNU-120596 (PNU) and/or 125 µM mecamylamine (Mec) and/or test chemicals in different concentrations for antagonist experiments were added to the Fura-2AM-loaded cells. The plate was again incubated for 20 min to allow full hydrolysis of the AM group before the experiment. The fluorescence was assessed at 37 °C in the fluorescence plate reader (FlexStation II; Molecular Devices) at two different excitation wavelengths, 340 nm for Ca^2+-bound Fura-2 and 380 nm for free Fura-2, and at 510 nm emission, every 3.1 s using bottom read settings. After 26–29 s of initial baseline recording of the fluorescence intensity, 10 µl of the compound dilution (10 times higher than the final concentration to the cells) was transferred automatically by the FlexStation II (“Flex mode”) to the cell plate wells (five wells per concentration) and the fluorescence intensity was monitored for another 150 s. The ratio of fluorescence intensity at 340/380 nm was determined and the mean values from the baseline recording before the addition of test compounds was set to zero. The acute change in the Ca^2+ influx after the addition of the compounds was quantified as the area under the curve (AUC) using the SoftMax Pro 4.8 software (Molecular Devices). All test compounds were dissolved in DMSO. Compounds were diluted in KRH buffer in 1:3 series, with 100 µM as the highest concentration. As a negative control, 0.1% DMSO in KRH buffer was used.

nAChRs on SH-SY5Y cells [7] = target: nAChRs on SH-SY5Y cells (Homo sapiens, UniProt P36544); assay: as above; assay type: cell-based; details: presence of PNU
Method: as §1, §2

T1 sequence (P43681 27-627): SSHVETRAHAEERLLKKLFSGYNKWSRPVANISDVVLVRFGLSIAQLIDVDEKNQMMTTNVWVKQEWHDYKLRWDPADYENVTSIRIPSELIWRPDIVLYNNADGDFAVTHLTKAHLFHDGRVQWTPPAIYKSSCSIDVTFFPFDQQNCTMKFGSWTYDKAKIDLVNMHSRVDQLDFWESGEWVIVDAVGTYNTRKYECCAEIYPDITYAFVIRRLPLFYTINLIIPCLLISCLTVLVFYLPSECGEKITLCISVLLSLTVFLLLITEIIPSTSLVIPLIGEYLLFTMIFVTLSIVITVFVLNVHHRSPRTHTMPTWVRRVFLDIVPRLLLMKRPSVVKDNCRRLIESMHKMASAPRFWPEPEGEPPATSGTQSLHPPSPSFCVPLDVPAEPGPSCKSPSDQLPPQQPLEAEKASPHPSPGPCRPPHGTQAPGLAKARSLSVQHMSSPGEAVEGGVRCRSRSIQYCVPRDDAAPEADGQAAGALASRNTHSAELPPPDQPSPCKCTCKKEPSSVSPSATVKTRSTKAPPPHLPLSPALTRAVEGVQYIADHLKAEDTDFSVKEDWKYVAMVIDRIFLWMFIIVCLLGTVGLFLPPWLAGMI
T1 sequence (P17787 26-502): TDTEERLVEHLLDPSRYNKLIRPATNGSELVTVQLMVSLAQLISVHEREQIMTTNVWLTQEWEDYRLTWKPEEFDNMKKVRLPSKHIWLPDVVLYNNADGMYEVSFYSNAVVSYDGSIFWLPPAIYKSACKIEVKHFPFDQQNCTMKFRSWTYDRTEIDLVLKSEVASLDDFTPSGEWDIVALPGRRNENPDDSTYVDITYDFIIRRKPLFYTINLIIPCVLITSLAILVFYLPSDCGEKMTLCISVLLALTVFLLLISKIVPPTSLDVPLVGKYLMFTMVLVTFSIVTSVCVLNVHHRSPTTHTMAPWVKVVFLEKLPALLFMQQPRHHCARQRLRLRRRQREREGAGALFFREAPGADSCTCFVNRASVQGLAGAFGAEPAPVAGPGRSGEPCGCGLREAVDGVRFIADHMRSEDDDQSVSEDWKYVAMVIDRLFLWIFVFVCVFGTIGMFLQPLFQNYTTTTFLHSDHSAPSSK
nAChRs on SH-SY5Y cells (Homo sapiens, UniProt P36544), sequence (P36544 23-502): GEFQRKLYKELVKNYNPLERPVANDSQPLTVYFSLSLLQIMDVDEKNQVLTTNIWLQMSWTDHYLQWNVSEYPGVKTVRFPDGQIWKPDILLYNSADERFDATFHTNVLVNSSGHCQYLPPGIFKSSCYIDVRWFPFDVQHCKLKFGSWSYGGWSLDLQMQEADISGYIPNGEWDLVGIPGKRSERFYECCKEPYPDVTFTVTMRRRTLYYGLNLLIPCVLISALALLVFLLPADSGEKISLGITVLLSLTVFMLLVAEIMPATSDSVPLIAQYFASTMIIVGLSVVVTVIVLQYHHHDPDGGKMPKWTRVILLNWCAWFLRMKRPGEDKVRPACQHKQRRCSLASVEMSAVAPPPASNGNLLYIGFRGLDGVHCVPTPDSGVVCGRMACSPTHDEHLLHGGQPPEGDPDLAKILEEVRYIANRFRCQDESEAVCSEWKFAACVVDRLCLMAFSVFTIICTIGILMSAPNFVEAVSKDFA

## NC1=NCCN1Cc1ccc(Cl)nc1 [DN-IMI, desnitro-imidacloprid]
Human α4β2 (HS) nAChR
  EC50: 501 nM
  fold lower concentrations activating α4β2 (HS) than α7 and α3β4 nAChRs: 20 fold
Human α4β2 (HS) nAChR; comparison of EC25 values, α4β2 (HS) vs α7 and α3β4
  higher potency on α4β2 (HS) nAChR than on other subtypes: > 1 log-step
Human α4β2 (HS) nAChR; from curve-fitted concentration–response data
  absolute EC25: 0.33 µM
Human α4β2 (HS) nAChR; normalized to nicotine (10 µM)
  estimated maximum amplitude, % of nicotine's: 64%
[1]
  hepatocyte CLint: < 143 µL/min/1e6 cells
[2]
  current responses in oocytes without receptor expression: did not detect any current responses
nAChRs on SH-SY5Y cells [3]
  effect of pretreatment on the response to nicotine in SH-SY5Y: reduced/abolished the response to nicotine in the submicromolar range
[4]; blood and plasma, read-out: Blood/plasma ration [B/P]
  blood plasma ratio: 0.759
[4]; plasma, read-out: Free fraction [fu]
  fraction unbound: 0.841
[5]
  pKa: 9.6
LUHMES neurons
  percentage of responsive cells: ~ 80%
nAChRs on SH-SY5Y cells [6]; absence of PNU
  response without PNU as % of the maximal response obtained in the presence of PNU: about 44%
nAChRs on SH-SY5Y cells [6]; absence of PNU, normalized to 10 µM nicotine
  estimated maximum: ~ 0.44
nAChRs on SH-SY5Y cells [6]; absence of PNU, normalized to 10 µM nicotine, fit for < 10 µM
  relative pEC50 (AUC of fluorescence): 6.8 ± 0.36
nAChRs on SH-SY5Y cells [6]; presence of PNU, declining responses at higher concentrations
  concentration of peak response: ~ 3 µM
nAChRs on SH-SY5Y cells [6]; presence of PNU, normalized to 10 µM nicotine
  estimated maximum: ~ 0.93
nAChRs on SH-SY5Y cells [7]; normalized to 10 µM nicotine, fit for < 10 µM
  relative pEC50 (AUC of fluorescence): 6.5 ± 0.07
nAChRs on SH-SY5Y cells [7]; read-out: half-maximal response concentration
  EC50: 300 nM and ~300 nM
